In brackets after ≈: the same amount, converted by molar mass.
Assays:
[1] = tested on: human leukemia cells (CCRF-CEM cell line); experiment: growth inhibition (cytotoxicity) of human leukemia cells, Table 1; format: cell-based; conditions: IC50 less than 20 μg/ml is considered active; for IC50: Homo sapiens, read-out: IC50 (concentration giving 50 percent growth inhibition)
Excerpt: 38, 2886 (1978). The representative compounds of formula I employed in the present invention are cytotoxic as They inhibit the growth of rapidly dividing human leukemia cells (CCRF-CEM cell line). Table 1 below gives the results of testing several compounds representative of formula I. In Table 1, Column 1 gives the representative compound and Column 2 gives the IC50 (concentration giving 50 percent growth inhibition) in μg/ml.

[2] = tested on: HSV-1; experiment: plaque inhibition of HSV-1 in African green monkey kidney cells (BSC-1), Table 2; format: cell-based, Herpes simplex virus, type I; conditions: 72 hours at 37° C., IC50 less than 20 μg/ml is considered active; for IC50: Human alphaherpesvirus 1, BSC-1 cells, read-out: HSV-1 IC50 (concentration giving 50 percent growth inhibition; plaque inhibition)
[3] = tested on: HSV-2; experiment: plaque inhibition of HSV-2 in African green monkey kidney cells (BSC-1), Table 2; format: cell-based, Herpes simplex virus, type II; conditions: 72 hours at 37° C., IC50 less than 20 μg/ml is considered active; for IC50: Human alphaherpesvirus 2, BSC-1 cells, read-out: HSV-2 IC50 (concentration giving 50 percent growth inhibition; plaque inhibition)

Row | SMILES | IC50 [1] | IC50 [2] | IC50 [3] | IC50 (concentration giving 50 percent growth inhibition) [1] | HSV-1 IC50 (concentration giving 50 percent growth inhibition; plaque inhibition) ([2]; BSC-1 cells) | HSV-2 IC50 (concentration giving 50 percent growth inhibition; plaque inhibition) ([3]; BSC-1 cells)
1 | CCOC(=O)Nc1ccn([C@@H]2O[C@H](CO)[C@@H](O)C2(F)F)c(=O)n1 [Example 6, β-1-(2-Oxo-4-aminocarboethoxy-1,2-dihydropyrimidin-1-yl)-2-deoxy-2,2-difluororibose] | 0.051 µg/mL (≈ 0.152 µM) | 0.53 µg/mL (≈ 1.58 µM) | 0.58 µg/mL (≈ 1.73 µM) |  |  | 
2 | NNc1ccn([C@@H]2O[C@H](CO)[C@@H](O)C2(F)F)c(=O)n1 [Example 5, β-1-(2-Oxo-4-hydrazino-1,2-dihydropyrimidin-1-yl)-2-deoxy-2,2-difluororibose] | 0.077 µg/mL (≈ 0.277 µM) | 3.12 µg/mL (≈ 11.2 µM) | 4.35 µg/mL (≈ 15.6 µM) |  |  | 
3 | O=C(O)CNc1ccn([C@@H]2O[C@H](CO)[C@@H](O)C2(F)F)c(=O)n1 [Example 9, β-1-(2-Oxo-4-N-glycinyl-1,2-dihydropyrimidin-1yl)-2-deoxy-2,2-difluororibose] | 0.4 µg/mL (≈ 1.25 µM) |  |  |  |  | 
4 | CNNc1ccn([C@@H]2O[C@H](CO)[C@@H](O)C2(F)F)c(=O)n1 [Example 10, β-1-[2-Oxo-4-(2-methylhydrazino)-1,2-dihydropyrimidin-1-yl]-2-deoxy-2,2-difluororibose] | 4.1 µg/mL (≈ 14 µM) |  |  |  |  | 
5 | O=c1n([C@@H]2O[C@H](CO)[C@@H](O)C2(F)F)ccc2nnnn12 [Example 2, 6-(2-deoxy-2,2-difluoro-β-D-ribofuranosyl)-1,2,3,4-tetrazolo[1,5-c]pyrimidine-5(6H) -one] | 0.5 µg/mL (≈ 1.73 µM) | 8 µg/mL (≈ 27.7 µM) | 9.25 µg/mL (≈ 32 µM) |  |  | 
6 | O=c1nc(NCO)ccn1[C@@H]1O[C@H](CO)[C@@H](O)C1(F)F [Example 7, β-1-(2-Oxo-4-hydroxymethylamino-1,2-dihydropyrimidin-1-yl)-2-deoxy-2,2-difluororibose] |  |  |  | 0.3 µg/mL (≈ 1.02 µM) | 18.0 µg/mL | 11.1 µg/mL
7 | CCOC(=O)CNc1ccn([C@@H]2O[C@H](CO)[C@@H](O)C2(F)F)c(=O)n1 [Example 8, β-1-(2-Oxo-4-N-glycineethyl ester-1,2-dihydropyrimidin-1-yl)-2-deoxy-2,2-difluororibose] | 18.4 µg/mL (≈ 52.7 µM) |  |  |  |  | 
8 | CCOC(=O)C(C)Nc1ccn([C@@H]2O[C@H](CO)[C@@H](O)C2(F)F)c(=O)n1 (stereo partly drawn) [Example 11, β-1-(2-oxo-4-N-alanineethyl ester-1,2-dihydropyrimidin-1-yl)-2-deoxy-2,2-difluororibose] |  |  |  | 6.3 µg/mL (≈ 17.3 µM) |  | 
9 | O=c1[nH]nc2ccn([C@@H]3O[C@H](CO)[C@@H](O)C3(F)F)c(=O)n12 [Example 4, 6-(2-deoxy-2,2-difluoro-β-D-ribofuranosyl)-1,2,4-triazolo[4,3c]pyrimidine-3,5(2H,6H)-dione] | 0.2 µg/mL (≈ 0.657 µM) | 6 µg/mL (≈ 19.7 µM) | 4.9 µg/mL (≈ 16.1 µM) |  |  | 
10 | O=c1nc(NO)ccn1[C@@H]1O[C@H](CO)[C@@H](O)C1(F)F [Example 1, β-1-(2-Oxo-4-hydroxyamino-1,2-dihydropyrimidin-1-yl)-2-deoxy-2,2-difluororibose] | 0.086 µg/mL (≈ 0.308 µM) | 0.7 µg/mL (≈ 2.51 µM) | 1.07 µg/mL (≈ 3.83 µM) |  |  | 

Reference: patent US5430026A, “2'-deoxy-2',2'-difluoro (4-substituted pyrimidine) nucleosides, bicyclic derivatives,pharmaceutical compositions, and synthetic precursors” (Eli Lilly and Company, priority 1993, dated 1995)
